Values of other authors in patent US7850997B2, “Dietary compositions and methods of enhancing lean body mass and exercise performance” (priority 2007, dated 2010).

Key:
[1] = compared with placebo; patients
[2] = oral arginine 0.5 g/10 kg for one week, versus placebo; primary or precapillary secondary pulmonary hypertension
[3] = after arginine 6 g/day for 10 days; 7 healthy males
[4] = 6 g oral L-arginine for 3 days vs placebo; 25 patients with stable coronary artery disease
[5] = oral L-arginine 6 g for 3 days; 22 patients with stable angina pectoris and healed myocardial infarction

N=C(N)NCCCC(N)C(=O)O (stereo not shown) [arginine, 2-amino-5-guanidinovaleric acid]
forearm blood flow during forearm exercise [1]: significantly increased | mean pulmonary arterial pressure [2]: significantly decreased | pulmonary vascular resistance [2]: significantly decreased | flow-mediated vasodilation (FMV) after 4 and 6 h after oral fat load [3]: normalized | flow-mediated vasodilation (FMV) at 2 h after oral fat load [3]: significantly decreased | exercise duration [4]: significantly increased | exercise capacity [5]: increased
